The results in this text go back to ChEMBL document CHEMBL3638721, “C-linked hydroxamic acid derivatives useful as antibacterial agents” (2014).

A word on the IC50: it is the point on the concentration scale where inhibition reaches its midpoint.

In the experiment the target is T1, UDP-3-O-acyl-N-acetylglucosamine deacetylase (Pseudomonas aeruginosa (strain ATCC 15692 / PAO1 / 1C / PRS 101 / LMG12228), UniProt P47205).
T1 sequence (P47205 whole entry): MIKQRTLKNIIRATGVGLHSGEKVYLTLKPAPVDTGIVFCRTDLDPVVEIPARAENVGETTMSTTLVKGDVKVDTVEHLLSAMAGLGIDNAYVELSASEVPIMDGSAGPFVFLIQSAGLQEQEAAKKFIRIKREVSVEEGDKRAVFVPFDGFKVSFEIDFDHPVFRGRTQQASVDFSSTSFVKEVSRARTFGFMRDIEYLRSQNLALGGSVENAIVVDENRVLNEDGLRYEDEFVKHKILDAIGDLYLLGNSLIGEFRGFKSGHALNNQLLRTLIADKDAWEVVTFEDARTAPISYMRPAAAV
The experiment in a line: At the end of 1 hour, 5 ul of 1N HCl was added to stop the enzyme reaction; the plates were centrifuged, and then processed with the BioTrove Rapidfire HTMS Mass Spectrometry System.

`CC(CCc1ccc(OC2CCCCC2)cc1)(C(=O)NO)S(C)(=O)=O` (configuration not stated) came in with an IC50 of 0.753 nM.
As for `CCC(CC)COc1ccc(CCC(C)(C(=O)NO)S(C)(=O)=O)cc1` (configuration not stated), the IC50 stood at 1.29 nM.
Turning to `CCC(c1ccccc1)c1noc(COc2ccc(CCC(C)(C(=O)NO)S(C)(=O)=O)cc2)n1` (configuration not stated), the IC50 turned out to be 20.5 nM.
`CC(CCc1ccc(OCc2nc(-c3cccc(F)c3)no2)cc1)(C(=O)NO)S(C)(=O)=O` (configuration not stated): the midpoint of inhibition, the IC50, lay at 3.81 nM.
On to `CC(CCc1ccc(OCCCOCc2ccccc2)cc1)(C(=O)NO)S(C)(=O)=O` (configuration not stated), for which the IC50 amounted to 21.1 nM.
Consider `Cc1ncccc1COc1ccc(CCC(C)(C(=O)NO)S(C)(=O)=O)cc1` (configuration not stated), for which the IC50 was 5.59 nM.
Consider `CC(CCc1ccc(OCC2CC2)cc1)(C(=O)NO)S(C)(=O)=O` (configuration not stated), for which the IC50 was 10.5 nM.
For the molecule `CC(CCc1ccc(OCCOc2ccccc2)cc1)(C(=O)NO)S(C)(=O)=O` (configuration not stated), the midpoint of inhibition, the IC50, lay at 1.52 nM.
Then `CC(CCc1ccc(OCc2ccc(F)cc2C(F)(F)F)cc1)(C(=O)NO)S(C)(=O)=O` (configuration not stated), with 2.36 nM; and `CC(CCc1ccc(OCc2cccc(Cl)c2)cc1)(C(=O)NO)S(C)(=O)=O` (configuration not stated), with 1.32 nM.
Then `CCCCCCOc1ccc(CCC(C)(C(=O)NO)S(C)(=O)=O)cc1` (configuration not stated), with 6.31 nM.
As for `CC(CCc1ccc(OCc2nc(-c3cccc(F)c3F)no2)cc1)(C(=O)NO)S(C)(=O)=O` (configuration not stated), the IC50 was determined as 5.31 nM.
For `Cc1ccc(C)c(COc2ccc(CCC(C)(C(=O)NO)S(C)(=O)=O)cc2)c1` (configuration not stated), the IC50 came out at 4.25 nM.
In turn, `CC(CCc1ccc(OCc2nc(-c3cc(F)cc(F)c3)no2)cc1)(C(=O)NO)S(C)(=O)=O` (configuration not stated) had an IC50 of 5.81 nM.
Molecule `CC(CCc1ccc(OCc2nc(Cc3cc(F)ccc3F)no2)cc1)(C(=O)NO)S(C)(=O)=O` (configuration not stated) came in with an IC50 of 0.714 nM.
Regarding `Cc1cc(C)cc(COc2ccc(CCC(C)(C(=O)NO)S(C)(=O)=O)cc2)c1` (configuration not stated), the IC50 is 4.5 nM.
`COc1ccc(F)c(-c2noc(COc3ccc(CCC(C)(C(=O)NO)S(C)(=O)=O)cc3)n2)c1` (configuration not stated): the IC50 was found to be 6.39 nM.
In turn, `Cc1cccc(COc2ccc(CCC(C)(C(=O)NO)S(C)(=O)=O)cc2)c1F` (configuration not stated) returned an IC50 of 0.525 nM.
In the case of `Cc1ccc(COc2ccc(CCC(C)(C(=O)NO)S(C)(=O)=O)cc2)cc1` (configuration not stated), the IC50 is 1.02 nM.
`CC(CCc1ccc(OCC2CCC2)cc1)(C(=O)NO)S(C)(=O)=O` (configuration not stated) came in with an IC50 of 3.28 nM.
In the case of `CC(C)CCCOc1ccc(CCC(C)(C(=O)NO)S(C)(=O)=O)cc1` (configuration not stated) it was 3.22 nM; in that of `CC(CCc1ccc(OCc2cccc(F)c2)cc1)(C(=O)NO)S(C)(=O)=O` (configuration not stated), 0.834 nM.
As for `Cc1ccc(-c2noc(COc3ccc(CCC(C)(C(=O)NO)S(C)(=O)=O)cc3)n2)cc1` (configuration not stated), the IC50 came to 3.48 nM.
`Cc1ccc(COc2ccc(CCC(C)(C(=O)NO)S(C)(=O)=O)cc2)cn1` (configuration not stated) yielded an IC50 of 5.96 nM.
In the case of `CC(CCc1ccc(OCCc2ccccc2)cc1)(C(=O)NO)S(C)(=O)=O` (configuration not stated), the IC50 amounted to 4.03 nM.
The molecule `CC(CCc1ccc(OCc2nc(C3CCCC3)no2)cc1)(C(=O)NO)S(C)(=O)=O` (configuration not stated) came in with an IC50 of 7.2 nM.
Consider `CC(CCc1ccc(OCc2cccc(OC(F)(F)F)c2)cc1)(C(=O)NO)S(C)(=O)=O` (configuration not stated), for which half-maximal inhibition (IC50) required 2.71 nM.
For the molecule `CC(CCc1ccc(OCc2cc(C#N)ccc2F)cc1)(C(=O)NO)S(C)(=O)=O` (configuration not stated), half-maximal inhibition (IC50) required 1.36 nM.
Turning to `CC(CCc1ccc(OCc2nc3ccccc3s2)cc1)(C(=O)NO)S(C)(=O)=O` (configuration not stated), the IC50 was found to be 0.651 nM.
In the case of `CC(CCc1ccc(OCc2ccc3ccccc3n2)cc1)(C(=O)NO)S(C)(=O)=O` (configuration not stated), the IC50 was 13.9 nM.
Take `CC(CCc1ccc(OCCc2ccncc2)cc1)(C(=O)NO)S(C)(=O)=O` (configuration not stated): the IC50 was determined as 13.7 nM.
Consider `CC(CCc1ccc(OCCC2CCCC2)cc1)(C(=O)NO)S(C)(=O)=O` (configuration not stated), for which the IC50 amounted to 1.27 nM.
Molecule `CC(CCc1ccc(OCCCC2CCCC2)cc1)(C(=O)NO)S(C)(=O)=O` (configuration not stated) yielded an IC50 of 2.55 nM.
`CC(CCc1ccc(OCCC2CCCCC2)cc1)(C(=O)NO)S(C)(=O)=O` (configuration not stated): the IC50 is 2.79 nM.
As for `CC(CCc1ccc(OCCCC2CCCCC2)cc1)(C(=O)NO)S(C)(=O)=O` (configuration not stated), half-maximal inhibition (IC50) required 4.56 nM.
The molecule `CC(CCc1ccc(OCCCc2ccccc2)cc1)(C(=O)NO)S(C)(=O)=O` (configuration not stated) yielded an IC50 of 10.2 nM.
Then `CC(CCc1ccc(OCCC2CC2)cc1)(C(=O)NO)S(C)(=O)=O` (racemic), with 1.36 nM.
